# Where two headings read alike, the source gives them in different places.
# How the values were obtained:
# EGFR^L858R/T790M/C797S = EGFR^L858R/T790M/C797S (Homo sapiens, UniProt P00533, C797S/L858R/T790M); test: HTRF KinEASE-TK in vitro kinase assay, KINASE LTC; format: biochemical
# Description: (§1) The biological activity of compounds described herein were studied according to standard methods known in the art. Methods were used to study inhibition of EGFR, including mutant forms of EGFR comprising L858R, T790M, C797S, and/or Del19 mutations, or any combination thereof (e.g., L858R single, double, or triple mutants). Exemplary, non-limiting methods are described herein.
# (§2) Assays using an in vitro kinase assay kit (HTRF KinEASE-TK kit) were used to study the inhibitory activity of compounds described herein with respect to EGFR mutants such as (1) EGFRL858R, (2) EGFR^L858R/T790M, and (3) EGFR^L858R/T790M/C797S.
# [1] = target: Ba/F3 EGFR-Del19/T790M/C797S (Homo sapiens, UniProt P00533, T790M/C797S, cells depend on it, form not given); test: Ba/F3 viability assay (CellTiter-Glo), BAF3 DTC; format: cell-based; conditions: Ba/F3 EGFR-Del19/T790M/C797S cell viability
# Chain of Ba/F3 EGFR-Del19/T790M/C797S (P00533 with tags, fused parts or gaps DEL746-750/T790M/C797S, form open): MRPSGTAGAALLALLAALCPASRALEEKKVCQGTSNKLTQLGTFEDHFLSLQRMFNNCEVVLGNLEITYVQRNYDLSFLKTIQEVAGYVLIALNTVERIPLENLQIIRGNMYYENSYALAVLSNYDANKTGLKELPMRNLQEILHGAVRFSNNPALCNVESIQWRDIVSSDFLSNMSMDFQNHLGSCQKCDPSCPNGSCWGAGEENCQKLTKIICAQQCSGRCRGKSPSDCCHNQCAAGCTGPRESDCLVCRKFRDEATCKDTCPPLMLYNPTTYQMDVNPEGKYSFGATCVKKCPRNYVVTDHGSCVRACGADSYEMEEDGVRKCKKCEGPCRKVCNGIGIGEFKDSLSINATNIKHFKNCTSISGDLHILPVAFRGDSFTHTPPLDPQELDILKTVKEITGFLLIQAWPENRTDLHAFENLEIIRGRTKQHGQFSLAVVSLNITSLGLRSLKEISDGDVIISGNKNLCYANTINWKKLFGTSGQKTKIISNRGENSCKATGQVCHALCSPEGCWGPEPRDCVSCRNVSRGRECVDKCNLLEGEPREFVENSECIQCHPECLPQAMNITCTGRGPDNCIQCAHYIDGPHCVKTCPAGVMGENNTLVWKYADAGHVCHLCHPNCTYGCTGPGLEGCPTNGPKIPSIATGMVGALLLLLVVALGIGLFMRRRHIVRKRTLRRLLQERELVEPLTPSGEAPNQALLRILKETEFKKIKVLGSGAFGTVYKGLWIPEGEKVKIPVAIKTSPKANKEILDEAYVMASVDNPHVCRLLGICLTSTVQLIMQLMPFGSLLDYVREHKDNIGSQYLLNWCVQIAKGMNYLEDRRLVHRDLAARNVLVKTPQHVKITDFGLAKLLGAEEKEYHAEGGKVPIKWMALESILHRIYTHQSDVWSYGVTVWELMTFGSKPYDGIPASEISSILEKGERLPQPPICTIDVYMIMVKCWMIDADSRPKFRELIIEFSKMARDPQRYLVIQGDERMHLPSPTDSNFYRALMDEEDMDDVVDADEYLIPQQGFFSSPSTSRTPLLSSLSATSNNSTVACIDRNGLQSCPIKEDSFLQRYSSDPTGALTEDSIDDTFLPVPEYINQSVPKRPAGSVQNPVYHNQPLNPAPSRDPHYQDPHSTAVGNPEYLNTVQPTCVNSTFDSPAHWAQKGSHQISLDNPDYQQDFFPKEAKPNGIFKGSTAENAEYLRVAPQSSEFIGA
# Description: as §1
# (§3) Inhibition of cell proliferation was studied using Ba/F3 viability assays, including the Promega CellTiter-Glo cell viability assay. This assay was used to study the effect of compounds described herein in the following assays: (1) Ba/F3 EGFR-Del19/T790M; (2); Ba/F3 EGFR-Del19/C797S; and (3) Ba/F3 EGFR-Del19/T790M/C797S. P-EGFR Signaling Assays
# EGFR^L858R/T790M = EGFR^L858R/T790M (Homo sapiens, UniProt P00533, L858R/T790M); test: HTRF KinEASE-TK in vitro kinase assay, KINASE LT; format: biochemical
# Description: as §1, §2
# Ba/F3 EGFR-Del19/T790M = Ba/F3 EGFR-Del19/T790M (Homo sapiens, UniProt P00533, T790M, cells depend on it, form not given); test: Ba/F3 viability assay (CellTiter-Glo), BAF3 DT; format: cell-based; conditions: Ba/F3 EGFR-Del19/T790M cell viability
# Chain of Ba/F3 EGFR-Del19/T790M (P00533 with tags, fused parts or gaps DEL746-750/T790M, form open): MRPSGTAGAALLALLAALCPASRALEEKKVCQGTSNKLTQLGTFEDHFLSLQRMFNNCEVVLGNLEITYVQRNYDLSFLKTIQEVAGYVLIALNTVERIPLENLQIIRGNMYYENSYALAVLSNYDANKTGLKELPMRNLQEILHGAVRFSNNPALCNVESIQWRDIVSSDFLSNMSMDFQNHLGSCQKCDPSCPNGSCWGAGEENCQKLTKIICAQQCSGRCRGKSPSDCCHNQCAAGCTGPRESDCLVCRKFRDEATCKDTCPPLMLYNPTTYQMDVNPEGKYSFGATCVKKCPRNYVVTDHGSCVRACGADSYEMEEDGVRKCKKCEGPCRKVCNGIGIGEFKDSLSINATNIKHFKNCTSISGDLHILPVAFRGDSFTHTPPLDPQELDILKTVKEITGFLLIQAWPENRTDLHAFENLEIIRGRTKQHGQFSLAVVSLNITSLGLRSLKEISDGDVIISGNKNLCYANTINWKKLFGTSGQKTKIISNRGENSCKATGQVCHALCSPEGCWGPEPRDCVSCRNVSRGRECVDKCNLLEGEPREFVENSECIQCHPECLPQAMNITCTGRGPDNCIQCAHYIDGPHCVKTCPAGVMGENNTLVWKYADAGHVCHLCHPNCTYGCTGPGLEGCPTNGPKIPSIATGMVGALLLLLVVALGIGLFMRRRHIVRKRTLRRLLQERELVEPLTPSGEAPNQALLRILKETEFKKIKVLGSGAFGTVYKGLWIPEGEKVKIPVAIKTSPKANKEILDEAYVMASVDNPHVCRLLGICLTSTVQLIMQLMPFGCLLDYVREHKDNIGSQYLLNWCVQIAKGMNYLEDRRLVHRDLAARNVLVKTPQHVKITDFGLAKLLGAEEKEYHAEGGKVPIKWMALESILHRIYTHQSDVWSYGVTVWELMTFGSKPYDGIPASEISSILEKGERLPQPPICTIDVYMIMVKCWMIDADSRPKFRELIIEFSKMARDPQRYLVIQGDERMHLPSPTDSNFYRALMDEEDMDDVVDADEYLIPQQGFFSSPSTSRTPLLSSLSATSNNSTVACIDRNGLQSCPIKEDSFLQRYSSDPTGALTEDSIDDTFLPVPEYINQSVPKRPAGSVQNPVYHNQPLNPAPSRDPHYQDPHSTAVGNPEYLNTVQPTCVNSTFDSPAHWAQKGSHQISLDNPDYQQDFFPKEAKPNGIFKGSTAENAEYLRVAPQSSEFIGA
# Description: as §1, §3
# EGFRL858R = EGFRL858R (Homo sapiens, UniProt P00533, L858R); test: HTRF KinEASE-TK in vitro kinase assay, KINASE L; format: biochemical; conditions: EGFR L858R kinase
# Chain of EGFRL858R (P00533 25-1210 L858R): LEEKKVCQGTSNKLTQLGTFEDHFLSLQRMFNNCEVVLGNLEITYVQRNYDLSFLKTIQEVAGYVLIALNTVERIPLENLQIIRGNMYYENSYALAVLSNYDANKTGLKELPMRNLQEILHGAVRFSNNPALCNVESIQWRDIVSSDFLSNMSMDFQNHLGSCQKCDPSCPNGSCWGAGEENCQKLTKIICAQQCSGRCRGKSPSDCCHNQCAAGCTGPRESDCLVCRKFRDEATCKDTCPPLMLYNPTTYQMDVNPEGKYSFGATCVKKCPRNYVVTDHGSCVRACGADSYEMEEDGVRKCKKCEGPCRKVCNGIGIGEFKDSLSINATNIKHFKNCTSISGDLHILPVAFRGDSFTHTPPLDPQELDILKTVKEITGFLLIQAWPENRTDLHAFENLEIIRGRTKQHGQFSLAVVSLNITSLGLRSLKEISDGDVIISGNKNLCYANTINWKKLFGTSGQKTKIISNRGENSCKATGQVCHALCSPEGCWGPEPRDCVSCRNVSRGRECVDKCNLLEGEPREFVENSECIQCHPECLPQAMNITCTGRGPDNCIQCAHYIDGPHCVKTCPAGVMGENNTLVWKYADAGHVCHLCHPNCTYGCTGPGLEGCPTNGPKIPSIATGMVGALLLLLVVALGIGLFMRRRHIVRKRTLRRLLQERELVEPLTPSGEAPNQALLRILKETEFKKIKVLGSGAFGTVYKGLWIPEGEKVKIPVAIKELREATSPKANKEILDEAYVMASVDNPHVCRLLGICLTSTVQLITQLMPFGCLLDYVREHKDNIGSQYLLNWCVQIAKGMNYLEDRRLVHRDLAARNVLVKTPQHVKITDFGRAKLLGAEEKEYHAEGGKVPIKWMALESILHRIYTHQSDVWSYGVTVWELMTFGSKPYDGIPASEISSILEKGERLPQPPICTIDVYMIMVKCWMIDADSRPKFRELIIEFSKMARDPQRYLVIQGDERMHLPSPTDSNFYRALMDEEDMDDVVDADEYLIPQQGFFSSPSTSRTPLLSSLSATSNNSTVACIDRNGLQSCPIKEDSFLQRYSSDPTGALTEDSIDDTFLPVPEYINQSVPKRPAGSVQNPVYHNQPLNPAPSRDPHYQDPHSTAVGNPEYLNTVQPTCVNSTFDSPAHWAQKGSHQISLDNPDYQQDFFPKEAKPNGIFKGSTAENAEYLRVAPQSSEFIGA
# Description: as §1, §2
# Ba/F3 EGFR-Del19/C797S = Ba/F3 EGFR-Del19/C797S (Homo sapiens, UniProt P00533, C797S, cells depend on it, form not given); test: Ba/F3 viability assay (CellTiter-Glo), BAF3 DC; format: cell-based; conditions: Ba/F3 EGFR-Del19/C797S cell viability
# Description: as §1, §3
# [2] = amide bond, TBTU, 20.0 °C
# [3] = amide bond, TBTU/Et3N, 20.0 °C
# Chain of EGFR^L858R/T790M/C797S (P00533 25-1210 T790M/C797S/L858R): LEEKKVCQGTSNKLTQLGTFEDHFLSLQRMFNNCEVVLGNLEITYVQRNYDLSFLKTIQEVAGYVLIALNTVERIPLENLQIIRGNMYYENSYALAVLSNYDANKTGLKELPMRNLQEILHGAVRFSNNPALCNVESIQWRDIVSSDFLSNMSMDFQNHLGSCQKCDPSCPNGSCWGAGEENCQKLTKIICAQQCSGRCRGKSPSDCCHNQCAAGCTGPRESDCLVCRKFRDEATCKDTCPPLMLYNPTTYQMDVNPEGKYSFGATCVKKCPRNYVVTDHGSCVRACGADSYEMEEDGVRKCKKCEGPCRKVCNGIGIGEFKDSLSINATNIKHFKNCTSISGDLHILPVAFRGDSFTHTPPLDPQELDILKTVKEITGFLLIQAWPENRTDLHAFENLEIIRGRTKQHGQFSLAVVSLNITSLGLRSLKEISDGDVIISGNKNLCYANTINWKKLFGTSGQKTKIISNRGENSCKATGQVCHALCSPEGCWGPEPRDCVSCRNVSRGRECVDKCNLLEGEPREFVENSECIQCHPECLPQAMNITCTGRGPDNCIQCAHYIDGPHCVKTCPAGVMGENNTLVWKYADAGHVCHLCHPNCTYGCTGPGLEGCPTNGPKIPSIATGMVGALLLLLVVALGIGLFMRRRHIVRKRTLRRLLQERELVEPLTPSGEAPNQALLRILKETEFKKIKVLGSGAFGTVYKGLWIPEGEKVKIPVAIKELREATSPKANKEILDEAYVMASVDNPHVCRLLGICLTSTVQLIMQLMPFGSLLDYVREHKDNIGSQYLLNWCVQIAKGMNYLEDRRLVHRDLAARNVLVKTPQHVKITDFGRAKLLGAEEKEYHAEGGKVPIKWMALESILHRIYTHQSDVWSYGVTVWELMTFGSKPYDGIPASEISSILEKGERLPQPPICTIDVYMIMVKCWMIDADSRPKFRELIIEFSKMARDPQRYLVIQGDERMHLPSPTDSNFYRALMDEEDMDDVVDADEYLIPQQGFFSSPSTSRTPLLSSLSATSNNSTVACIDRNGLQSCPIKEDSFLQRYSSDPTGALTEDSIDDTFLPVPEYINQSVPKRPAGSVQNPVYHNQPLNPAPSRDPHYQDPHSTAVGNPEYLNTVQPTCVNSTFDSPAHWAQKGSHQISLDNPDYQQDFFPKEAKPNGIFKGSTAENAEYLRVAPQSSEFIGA
Compound,IC50 (EGFR^L858R/T790M/C797S),GI50 [1],IC50 (EGFR^L858R/T790M),GI50 (Ba/F3 EGFR-Del19/T790M),IC50 (EGFRL858R),GI50 (Ba/F3 EGFR-Del19/C797S),"ring closure, yield of all isomers ([2]; from Cc1cc(C(=O)O)cc(-c2cnn(C)c2CCCC[C@@H](C)Cn2c(N)nc3ccc(Br)cc32)n1, TEA, DCM, 2.75 mM, 2.0 h)","ring closure, isolated yield ([3]; from Cc1cc(C(=O)O)cc(-c2cnn(C)c2CCCC[C@@H](C)Cn2c(N)nc3ccc(Br)cc32)n1, 15-membered ring, DCM, 2.75 mM)","ring closure, yield of all isomers ([2]; from Cc1cc(C(=O)O)cc(-c2cnn(C)c2N2CC(OCCn3c(N)nc4ccc(Br)cc43)C2)n1, TEA, DCM, 3.99 mM, 1.0 h)","ring closure, isolated yield ([3]; from Cc1cc(C(=O)O)cc(-c2cnn(C)c2N2CC(OCCn3c(N)nc4ccc(Br)cc43)C2)n1, 15-membered ring, DCM, 3.99 mM)","ring closure, isolated yield ([3]; from Cc1cc(C(=O)O)cc(-c2cnn(C)c2CCC[C@@H](C)Cn2c(N)nc3ccc(Br)cc32)n1, 14-membered ring, DCM, 5.05 mM)","ring closure, yield of all isomers ([2]; from Cc1cc(C(=O)O)cc(-c2cnn(C)c2CCCO[C@@H](C)Cn2c(N)nc3ccc(Br)cc32)n1, Et3N, DMF, 190.0 mM, 0.5 h)","ring closure, isolated yield ([3]; from Cc1cc(C(=O)O)cc(-c2cnn(C)c2CCCO[C@@H](C)Cn2c(N)nc3ccc(Br)cc32)n1, 15-membered ring, DMF, 190.0 mM)"
Cc1cc2cc(n1)-c1cnn(C)c1CCC[C@@H](C)CN1/C(=N/C2=O)Nc2c(C)cc(N3CCN(C)CC3)cc21 [(2)],< 50 nM,< 50 nM,< 50 nM,< 50 nM,< 50 nM,50 to 100 nM,,,,,,,
Cc1cc2cc(n1)-c1cnn(C)c1CCCC[C@@H](C)Cn1c(nc3ccc(Br)cc31)NC2=O,,,,,,,72.7%,72.7%,,,,,
COc1ccncc1-c1ccc2c(c1)N1C[C@H](C)CCCc3c(cnn3C)-c3cc(cc(C)n3)C(=O)/N=C/1N2 [(9)],< 50 nM,< 50 nM,< 50 nM,< 50 nM,< 50 nM,< 50 nM,,,,,,,
"Cc1ccc(-c2ccc3c(c2)N2C[C@H](C)CCCc4c(cnn4C)-c4cc(cc(C)n4)C(=O)/N=C/2N3)cn1 [Compound (10), (10R,20E)-5,10,25-trimethyl-15-(6-methyl-3-pyridyl)-4,5,12,19,21,26-hexazapentacyclo[21.3.1.02,6.012,20.013,18]heptacosa-1(27),2(6),3,13(18),14,16,20,23,25-nonaen-22-one]",< 50 nM,< 50 nM,< 50 nM,< 50 nM,< 50 nM,< 50 nM,,,,,,,
Cc1cc2cc(n1)-c1cnn(C)c1CCCCCN1/C(=N/C2=O)Nc2ccc(CN3CCNCC3)cc21 [(46)],< 50 nM,< 50 nM,< 50 nM,< 50 nM,< 50 nM,< 50 nM,,,,,,,
Cc1cc2cc(n1)-c1cnn(C)c1CCC[C@@H](C)CN1/C(=N/C2=O)Nc2ccc(N3CCC(N4CC[C@H](N(C)C)C4)CC3)cc21 [(4)],< 50 nM,< 50 nM,< 50 nM,< 50 nM,< 50 nM,< 50 nM,,,,,,,
Cc1cc2cc(n1)-c1cnn(C)c1CCCCCN1/C(=N/C2=O)Nc2ccc(CN3CCN(C)CC3)cc21 [(69)],< 50 nM,< 50 nM,< 50 nM,< 50 nM,< 50 nM,< 50 nM,,,,,,,
Cc1cc2cc(n1)-c1cnn(C)c1-c1cccc(c1)CN1/C(=N/C2=O)Nc2ccc(CN3CCN(C)CC3)cc21 [(61)],< 50 nM,100 to 1000 nM,< 50 nM,100 to 1000 nM,100 to 1000 nM,100 to 1000 nM,,,,,,,
COc1cc(N2CCN(C)CC2)cc2c1N/C1=N\C(=O)c3cc(C)nc(c3)-c3cnn(C)c3CCC[C@@H](C)CN12 [(3)],< 50 nM,< 50 nM,< 50 nM,50 to 100 nM,< 50 nM,100 to 1000 nM,,,,,,,
Cc1cc2cc(n1)-c1cnn(C)c1N1CC(C1)OCCN1/C(=N/C2=O)Nc2ccc(Br)cc21,,,,,,,,,60.3%,60.3%,,,
Cc1cc2cc(n1)-c1cnn(C)c1CCC[C@@H](C)CN1/C(=N/C2=O)Nc2ccc(N(CCN(C)C)CC3COC3)cc21 [(18)],< 50 nM,< 50 nM,< 50 nM,50 to 100 nM,< 50 nM,100 to 1000 nM,,,,,,,
Cc1cc2cc(n1)-c1cnn(C)c1CCC[C@@H](C)CN1/C(=N/C2=O)Nc2ccc(N3CCC(N4CCOCC4)CC3)cc21 [(24)],< 50 nM,< 50 nM,< 50 nM,< 50 nM,< 50 nM,< 50 nM,,,,,,,
Cc1cc2cc(n1)-c1cnn(C)c1CCCCCCN1/C(=N/C2=O)Nc2ccc(CN3CCN(C)CC3)cc21 [(64)],< 50 nM,< 50 nM,< 50 nM,< 50 nM,< 50 nM,50 to 100 nM,,,,,,,
Cc1cc2cc(n1)-c1cnn(C)c1CCC[C@@H](C)CN1/C(=N/C2=O)Nc2ccc(CN3CCN(CCF)CC3)cc21 [(25)],< 50 nM,< 50 nM,< 50 nM,< 50 nM,< 50 nM,< 50 nM,,,,,,,
"Cc1cc2cc(n1)-c1cnn(C)c1CCCO[C@@H](C)CN1/C(=N/C2=O)Nc2ccc(CN3CCN(C)CC3)cc21 [Compound (55), (11S,21E)-5,11,26-trimethyl-16-[(4-methylpiperazin-1-yl)methyl]-10-oxa-4,5,13,20,22,27-hexazapentacyclo[22.3.1.02,6.013,21.014,19]octacosa-1(28),2(6),3,14(19),15,17,21,24,26-nonaen-23-one]",< 50 nM,50 to 100 nM,< 50 nM,100 to 1000 nM,100 to 1000 nM,100 to 1000 nM,,,,,,,
Cc1cc2cc(n1)-c1cnn(C)c1CCCCCCN1/C(=N/C2=O)Nc2ccc(N(C)CCN(C)C)cc21 [(40)],< 50 nM,< 50 nM,< 50 nM,< 50 nM,< 50 nM,100 to 1000 nM,,,,,,,
Cc1cc2cc(n1)-c1cnn(C)c1CCC[C@@H](C)CN1/C(=N/C2=O)Nc2ccc(N3C[C@@H](C)N(C)[C@@H](C)C3)cc21 [(11)],< 50 nM,< 50 nM,< 50 nM,< 50 nM,< 50 nM,< 50 nM,,,,,,,
Cc1cc2cc(n1)-c1cnn(C)c1CCC[C@@H](C)CN1/C(=N/C2=O)Nc2ccc(OC3CCNCC3)cc21 [(15)],< 50 nM,< 50 nM,< 50 nM,< 50 nM,< 50 nM,< 50 nM,,,,,,,
Cc1cc2cc(n1)-c1cnn(C)c1CCC[C@@H](C)CN1/C(=N/C2=O)Nc2ccc(Br)cc21,,,,,,,,,,,60.5%,,
Cc1cc2cc(n1)-c1cnn(C)c1-c1cccc(c1)C(C)CN1/C(=N/C2=O)Nc2ccc(C(=O)N3CCN(C)CC3)cc21 (stereo not shown) [(57)],< 50 nM,100 to 1000 nM,< 50 nM,≥ 1000 nM,100 to 1000 nM,100 to 1000 nM,,,,,,,
Cc1cc2cc(n1)-c1cnn(C)c1CCCCCCN1/C(=N/C2=O)Nc2ccc(CN3CCOCC3)cc21 [(62)],100 to 1000 nM,100 to 1000 nM,100 to 1000 nM,≥ 1000 nM,< 50 nM,50 to 100 nM,,,,,,,
Cc1cc2cc(n1)-c1cnn(C)c1CCC[C@@H](C)CN1/C(=N/C2=O)Nc2ccc(CN3CCN(C)CC3)cc21 [(35)],< 50 nM,< 50 nM,< 50 nM,< 50 nM,< 50 nM,< 50 nM,,,,,,,
Cc1cc2cc(n1)-c1cnn(C)c1CCCO[C@@H](C)CN1/C(=N/C2=O)Nc2ccc(Br)cc21,,,,,,,,,,,,28.8%,28.8%
Cc1cc2cc(n1)-c1cnn(C)c1CCC[C@@H](C)CN1/C(=N/C2=O)Nc2ccc(N3CCN(C(C)C)CC3)cc21 [(28)],< 50 nM,< 50 nM,< 50 nM,< 50 nM,< 50 nM,< 50 nM,,,,,,,

# Reference: patent publication US20240199614A1, “MACROCYCLIC EGFR INHIBITORS FOR THE TREATMENT OF CANCER” (Theseus Pharmaceuticals, Inc., priority 2021, published 2024)
